In patent US20190276376A1, “CAPSULES COMPRISING BENZYLPROPARGYLETHERS FOR USE AS NITRIFICATION INHIBITORS” (BASF SE, priority 2016, published 2019):

Columns and labels:
[1] = Vapor pressure by thermogravimetry; format: physicochemical; conditions: at 20° C.; Mettler Toledo STAR thermogravimeter
Description: The vapor pressure can be determined by thermogravimetry by methods known in the art. In the context of the present invention, a Mettler Toledo STAR thermogravimeter with 5 mg sample on a glass plate may be used. As a reference compound, 3,4-dimethyl pyrazole (DMP) was inter alia measured and a vapor pressure of 3.7 Pa at 20° C. was determined.

N2O emissions = N2O emissions from potted lettuce in greenhouse soil, gas chamber sampling, GC-ECD; format: in vivo, Green head lettuce; conditions: total cumulated N2O emissions, % inhibition compared to control; greenhouse 20° C., 60% humidity
Description: Green head lettuce was seeded in seedling boxes. Once the 4 leaf stage was reached one plant was potted into a 8 cm pot in standard greenhouse soil (mixture of peat, loam and sand) and grown in the greenhouse at 20° C. and 60% humidity. One week after planting the plants, the pots were separated out and each pot set onto a plant saucer designed with an inner compartment for the pot and an outer ring that is filled with water. At time 0, water with or without various concentrations of fertilizer and with either empty formulation or formulated capsule suspensions was applied to the plant such that the water holding capacity of the soil was around 50%. Then a gas sampling chamber was placed over the plant saucer such that the rim fit into the ring filled with water to create a gas-tight chamber and 20 cc air from the chamber were drawn into a syringe and immediately emptied in to a Vacutainer (Labco, 12 ml volume). This equals the Time Zero measurement for each pot. The same procedure was performed with all pots in the experiment. After incubation time of 1 h, again 20 cc air samples were taken from the gas chambers and emptied into Vacutainers as described above. […]
Samples were analyzed in a Shimadzu 2014 GC equipped with an ECD system. Total cumulated N2O emissions were calculated and related by calculating the % inhibition compared to control.

Row | Structure (SMILES) | vapor pressure [1] [Pa] | Inhibition (%) N2O emissions (N2O emissions) [%]
1 | Cc1cn[nH]c1C [3,4-dimethyl pyrazole (DMP), 3,4-dimethyl pyrazole] | 3.7 | –
2 | C#CCOCc1ccc(Cl)cc1 [Example A-10] | – | 25
